Data set [1] concerns C57BL/C6 mice. The data set is described as follows: Anti-obesity effect in high calorie diet mouse model. In kind it is in vivo. The note with it: high calorie diet + 15 mg/kg, FIG. 12. As for the experimental part: C57BL/C6 mice were used to test the anti-obesity effect in a mouse model with respect to the compound of Chemical Formula 1 of the present invention, which is an adipogenesis-inhibiting compound. For effective evaluation of the anti-obesity model, the control group (general diet), the control group (high calorie diet), and an anti-obesity control group (high calorie diet+Chemical Formula 1 (15 mg/kg)) were compared and evaluated (FIG. 12). The mice injected with the high-calorie diet rather than the general diet gained 131% in body weight, but the mice treated with the high-calorie diet and Chemical Formula 1 (15 mg/kg) together […] 115% in body weight.

Data set [2] deals with C57BL/C6 mice. The data set is described as follows: Blood obesity and liver damage markers in high calorie diet mice. The note with it: plasma, compared to high calorie control group, FIG. 13. Format: in vivo, mouse. As for the experimental part: Then, after the experiment was completed, the animal blood of each group was collected and centrifuged to separate plasma, and then representative obesity markers in the blood such as total cholesterol (tCHO), high density lipoprotein (HDL), and low density lipoprotein (LDL), and liver damage markers such as glutamic oxaloacetic transaminase (GOT) and glutamic pyruvic acid transaminase (GPT) were analyzed with a blood chemistry analyzer.

Another data set can be described thus: Cytotoxicity assay, MCF7. In kind it is cell-based. As to conditions: human, MCF7 cells (breast cancer); MCF7, 48 hours, maximum concentration 100 μM. As for the experimental part:
(§1) To measure the cytotoxicity of the compound represented by Chemical Formula 1 (Chemical Formula 1-1), toxicity was measured in mouse preadipocyte 3T3-L1 cell line, human malignant melanoma A375 cell line, mouse malignant melanoma B16F10 cell line, human oral cancer MDA-MB-435 cell line, mouse breast cancer 4T1 cell line, human breast cancer MCF7 cell line, human brain cancer U87MG cell line, human glioblastoma U373MG cell line, human cervical cancer HeLa cell line, mouse embryonic fibroblast (MEF) cell line, human embryonic kidney HEK293T cell line (Korea Cell Line Bank). First, 1×10^4 cells were divided into 200 μl each in a 96-well plate using Dulbecco's Modified Eagle's Medium (DMEM) supplemented with 10% fetal bovine serum (FBS), […] streptomycin, and 50 U/ml penicillin, while maintaining various cells at 37r in an atmosphere of 5% CO2. The cells were treated with the compound of Chemical Formula 1-1 of the present invention at a maximum concentration of 100 μM and cultured for 48 hours under the same culture conditions. After the incubation, the culture media were removed and the cytotoxicity test results were confirmed (Table 2 and FIG. 3 below).

A short description of data set [3]: Cytotoxicity assay, B16F10. As to conditions: mouse, B16F10 cells (malignant melanoma); B16F10, 48 hours, maximum concentration 100 μM. In kind it is cell-based. The method, then: as §1
In data set [4] the test system is adipocyte differentiation-associated proteins in the 3T3-L1 cell line. As to the kind of experiment: Western blotting of adipocyte differentiation-associated proteins. Format: cell-based, mouse. As to conditions: 7.5 μM, FIG. 10. As for the experimental part: Additionally, in order to verify the adipogenesis inhibitory ability of the Chemical Formula 1 according to the present invention, the level of adipocyte differentiation-associated proteins in the 3T3-L1 cell line was measured. The 3T3-L1 cells were cultured in a 6-well plate (2×10^5 cell/well), and the next day, the cells were replaced with normal culture media (Undifferentiated media; UND) and differentiation induction media (Differentiation media; DM), respectively, followed by treatment with the compound of Chemical Formula 1-1 at 7.5 μM for 48 hours, and then the cells were replaced with new normal culture media (Maintaining media; MM). When replacement with normal culture media, the cells were treated with 7.5 μM of Chemical Formula 1-1, and cultured for 72 hours more, followed by Western blotting.

A further data set in a line: Cytotoxicity assay, HeLa. Format: cell-based. As to conditions: human, HeLa cells (cervical cancer), maximum concentration 100 μM. As for the experimental part:
as §1

The next data set in a line: Cytotoxicity assay, 4T1. Format: cell-based. The note with it: mouse, 4T1 cells (breast cancer); 4T1, 48 hours, maximum concentration 100 μM. As for the experimental part: as §1
Another data set concerns 3T3-L1 cells. The data set is described as follows: Cytotoxicity in 3T3-L1 cells in L-conditional or Wnt3a-containing culture media. In kind it is cell-based, mouse. The note with it: 2.5 to 10 μM, Wnt3a-containing culture media (2.5%), FIG. 3. As for the experimental part: Next, in order to confirm the cytotoxicity in the Chemical Formula 1-1 and wnt3 culture, toxicity in 3T3-L1 cells was measured on the compound of Chemical Formula 1-1 of the present invention at a concentration of 2.5 to 10 μM in L-conditional media or Wnt3a-containing culture media (2.5%).

Data set [5] is described as follows: Cytotoxicity assay, U87MG. Format: cell-based. The note with it: human, U87MG cells (brain cancer), maximum concentration 100 μM. The method, then: as §1
In data set [6] the test system is β, a Wnt3a signaling protein. As to the kind of experiment: Western blotting of Wnt3a signaling protein in 3T3-L1. Format: cell-based, mouse. The note with it: 7.5 μM, 3T3-L1, western blotting, FIGS. 6 and 7. The method, then: To confirm the Wnt3a signaling of Chemical Formula 1-1, the protein level of β, a Wnt3a signaling protein, was measured in the 3T3-L1 cell line. The 3T3-L1 cells were cultured in a 6-well plate (2×10^5 cell/well), and the next day, the cells were replaced with normal culture media (Undifferentiated media; UND) and differentiation induction media (Differentiation media; DM), respectively, followed by treatment with the compound of Chemical Formula 1-1 at 7.5 μM for 48 hours, and then the cells were replaced with new normal culture media (Maintaining media; MM). Here, the compound of Chemical Formula 1-1 at a concentration of 7.5 μM was cultured for 72 hours, followed by western blotting. In FIGS. 6 and 7, it was confirmed that the protein level of β increased in the treatment of the compound of Chemical Formula 1-1 alone and the treatment of Chemical Formula 1-1 and Wnt3a together.

Data set [7] can be described thus: Cytotoxicity assay, HEK293T. As to conditions: human, HEK293T cells (embryonic kidney), maximum concentration 100 μM. In kind it is cell-based. As for the experimental part:
as §1

Data set [8] has as its system adipogenesis-associated genes (3T3-L1 cells). The data set is described as follows: Q-PCR of adipogenesis-associated genes. Format: cell-based, mouse. The note with it: FIG. 11. The source says: In addition, real-time polymerase chain reaction (Q-PCR) was used to confirm the expression of adipogenesis-associated genes. As a result, it was confirmed that the amount of adipogenesis induction-associated mRNA was reduced when treated with the compound of Chemical Formula 1 according to the present invention (FIG. 11).

For `CC(C)CC1NC(=O)C2CCCN2C(=O)C(C(O)C(C)C)NC(=O)CNC(=O)C(C(C)O)NC(=O)C2NC(=O)C(NC(=O)/C=C/c3ccccc3C(O)C(C)O)C(C)OC(=O)C(CC(N)=O)NC(=O)C(NC(=O)C(O)NC1=O)C(O)c1ccc(O)c(c1)Oc1ccc2cc1` (centres unmarked) [Chemical Formula 1-1], the abdominal fat weight entry with C57BL/C6 mice [1] is on record as “significant decrease”. The liver weight result with C57BL/C6 mice [1] was “significant decrease”. In addition, the body weight with C57BL/C6 mice [1] (high-calorie diet alone 131%) was found to be 115%. In addition, the “glutamic oxaloacetic transaminase (GOT)” value in the data set on C57BL/C6 mice [2] is “significantly reduced”. Moreover, the “glutamic pyruvic acid transaminase (GPT)” value with C57BL/C6 mice [2] is given as “significantly reduced”. The “high density lipoprotein (HDL)” value with C57BL/C6 mice [2] is given as “increased”. In the data set on C57BL/C6 mice [2], the “low density lipoprotein (LDL)” value was “significantly reduced”. Further, the “total cholesterol (tCHO)” value in the data set on C57BL/C6 mice [2] is “significantly reduced”. Besides, the concentration for half-maximal inhibition (IC50) at 48 h in “Cytotoxicity assay, MCF7” is > 100 µM; in data set [3], > 100 µM; in the data set “Cytotoxicity assay, HeLa”, > 100 µM; in the data set “Cytotoxicity assay, 4T1”, > 100 µM; in data set [5], > 100 µM; in [7] it was > 100 µM. In addition, the “level of adipogenesis induction-associated proteins” value in data set [4] (compound alone, differentiated adipocytes) is on record as “lower protein levels”; in data set [4] (simultaneous treatment with Wnt3a-conditional media (2.5%)), “lower protein levels”. Moreover, in the data set on 3T3-L1 cells, the cytotoxicity result is “cytotoxicity was not observed”. Besides, the “protein level of β” value in data set [6] (compound alone) and in data set [6] (together with Wnt3a) was “increased” each time. Further, the “amount of adipogenesis induction-associated mRNA” value in data set [8] is “reduced”.

Broadly, the IC50 is the midpoint of a concentration-inhibition curve.

The record behind these values is patent US20240182525A1, “NOVEL BICYCLIC COMPOUND, OPTICAL ISOMER THEREOF OR PHARMACEUTICALLY ACCEPTABLE SALT THEREOF, USE THEREOF, AND PREPARATION METHOD THEREFOR” (KOREARESEARCH INSTITUTE OF BIOSCIENCE AND BIOTECHNOLOGY, priority 2021, published 2024).
